This is an account of results in BindingDB's records for patent US11773085 (Foghorn Therapeutics, 2023).

A value given as a limit tells only on which side of the number the result lay.

This test concerns the target T1, Bromodomain-containing protein 9 [133-239] (Homo sapiens, UniProt Q9H8M2).
T1 construct: 133-239
T1 sequence (Q9H8M2 whole entry): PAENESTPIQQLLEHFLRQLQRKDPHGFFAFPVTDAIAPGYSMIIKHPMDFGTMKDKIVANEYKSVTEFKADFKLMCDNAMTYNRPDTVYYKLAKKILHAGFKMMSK
As to the kind of experiment: BRD9 Bromodomain TR-FRET Competition Binding Assay. Here is the method:
A mixture of biotinylated-ligand and SureLight Allophycocyanin-Streptavidin (APC-SA, PerkinElmer AD0201) in 50 mM HEPES (pH 7.4), 50 mM NaCl, 1 mM TCEP (pH 7), 0.01% (v/v) Tween-20, 0.01% (w/v) bovine serum albumin was added to a white 384-well PerkinElmer Proxiplate Plus plate. DMSO or 3-fold serially diluted compounds were then added to the Proxiplate followed by addition of Flag-BRD9. After a 10 minute incubation at room temperature, Eu-W1024 anti-FLAG (PerkinElmer, AD0273) was added.
In general terms: Time-resolved FRET reads energy transfer from a long-lived donor to a nearby acceptor.

What is called IC50 is the midpoint of a concentration-inhibition curve. Lower therefore signals greater potency in that assay. Consider `CCS(=O)(=O)N(C)Cc1c(OC)cc(-c2cn(C)c(=O)c3cnccc23)cc1OC` [US11773085, Compound B35], for which the IC50 was less than 0.01 µM.

Molecule `COc1cc(-c2cn(C)c(=O)c3cnccc23)cc(OC)c1CN(C)C(=O)CCCCCOc1cccc2c1C(=O)N(C1CCC(=O)NC1=O)C2=O` (configuration not stated) [US11773085, Compound D4] showed an IC50 of less than 0.01 µM.
